Source: PubChem BioAssay AID1963971 (Molecular Pharmacology Branch, DTP, NCI, 2024)
pIC50: −log10 of the molar value.

Tested on: 953936-095-R-J2-PDC spheroids with HUVEC/MSC, viability
Test: Anticancer human tumor 953936-095-R-J2-PDC patient-derived cervical squamous cell carcinoma cell line growth inhibition [PI3K]
Conditions: for pIC50: curve of first compound; for viability, T/C: stronger effect = lower value
How it was run: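 We assembled tumor spheroids that included a stromal compartment of HUVEC and MSCs, then exposed them to targeted agents alone and together with PI3K pathway inhibitors. Concentration series descended by half-log from clinically achievable Cmax levels. Viability served as the endpoint.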

[1] = second compound 0.00316 µM, first compound 0.0316 µM
[2] = second compound 0.00316 µM, first compound 0.1 µM
[3] = second compound 0.01 µM, first compound 0.0316 µM
[4] = second compound 0.01 µM, first compound 0.1 µM
[5] = second compound 0.0316 µM, first compound 0.0316 µM
[6] = second compound 0.0316 µM, first compound 0.1 µM
[7] = second compound 0.1 µM, first compound 0.0316 µM
[8] = second compound 0.1 µM, first compound 0.1 µM
[9] = second compound 0.316 µM, first compound 0.0316 µM
[10] = second compound 0.316 µM, first compound 0.1 µM
[11] = second compound 1 µM, first compound 0.0316 µM
[12] = second compound 1 µM, first compound 0.1 µM
[13] = second compound 0.00316 µM, first compound 0.316 µM
[14] = second compound 0.00316 µM, first compound 1 µM
[15] = second compound 0.00316 µM, first compound 3.16 µM
[16] = second compound 0.00316 µM, first compound 10 µM
[17] = second compound 0.01 µM, first compound 0.316 µM
[18] = second compound 0.01 µM, first compound 1 µM
[19] = second compound 0.01 µM, first compound 3.16 µM
[20] = second compound 0.01 µM, first compound 10 µM
[21] = second compound 0.0316 µM, first compound 0.316 µM
[22] = second compound 0.0316 µM, first compound 1 µM
[23] = second compound 0.0316 µM, first compound 3.16 µM
[24] = second compound 0.0316 µM, first compound 10 µM
[25] = second compound 0.1 µM, first compound 0.316 µM
[26] = second compound 0.1 µM, first compound 1 µM
[27] = second compound 0.1 µM, first compound 3.16 µM
[28] = second compound 0.1 µM, first compound 10 µM
[29] = second compound 0.316 µM, first compound 0.316 µM
[30] = second compound 0.316 µM, first compound 1 µM
[31] = second compound 0.316 µM, first compound 3.16 µM
[32] = second compound 0.316 µM, first compound 10 µM
[33] = second compound 1 µM, first compound 0.316 µM
[34] = second compound 1 µM, first compound 1 µM
[35] = second compound 1 µM, first compound 3.16 µM
[36] = second compound 1 µM, first compound 10 µM
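Further: spheroids exposed to compounds for seven days before read-out.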

CC(=O)c1c(C)c2cnc(Nc3ccc(N4CCNCC4)cn3)nc2n(C2CCCC2)c1=O + COc1c(OCCCN2CCOCC2)ccc2c3n(c(=NC(=O)c4cnc(N)nc4)nc12)CCN3
pIC50 (second compound 0.00316 µM): < 7.00 | pIC50 (second compound 0.01 µM): < 7.00 | pIC50 (second compound 0.0316 µM): > 9.50 | pIC50 (second compound 0.1 µM): > 9.50 | pIC50 (second compound 0.316 µM): > 9.50 | pIC50 (second compound 1 µM): > 9.50 | viability, T/C (second compound 0.00316 µM, first compound 0.000316 µM): 87.4% | viability, T/C (second compound 0.00316 µM, first compound 0.001 µM): 85.6% | viability, T/C (second compound 0.00316 µM, first compound 0.00316 µM): 105% | viability, T/C (second compound 0.00316 µM, first compound 0.01 µM): 88.4% | viability, T/C [1]: 94.3% | viability, T/C [2]: 81.4% | viability, T/C (second compound 0.01 µM, first compound 0.000316 µM): 71.5% | viability, T/C (second compound 0.01 µM, first compound 0.001 µM): 77.9% | viability, T/C (second compound 0.01 µM, first compound 0.00316 µM): 82.6% | viability, T/C (second compound 0.01 µM, first compound 0.01 µM): 78% | viability, T/C [3]: 76.9% | viability, T/C [4]: 66.6% | viability, T/C (second compound 0.0316 µM, first compound 0.000316 µM): 40.5% | viability, T/C (second compound 0.0316 µM, first compound 0.001 µM): 40.2% | viability, T/C (second compound 0.0316 µM, first compound 0.00316 µM): 36.7% | viability, T/C (second compound 0.0316 µM, first compound 0.01 µM): 40.6% | viability, T/C [5]: 38.2% | viability, T/C [6]: 37.1% | viability, T/C (second compound 0.1 µM, first compound 0.000316 µM): 20.1% | viability, T/C (second compound 0.1 µM, first compound 0.001 µM): 17.4% | viability, T/C (second compound 0.1 µM, first compound 0.00316 µM): 18.9% | viability, T/C (second compound 0.1 µM, first compound 0.01 µM): 19.3% | viability, T/C [7]: 17.6% | viability, T/C [8]: 18.4% | viability, T/C (second compound 0.316 µM, first compound 0.000316 µM): 6.83% | viability, T/C (second compound 0.316 µM, first compound 0.001 µM): 6.01% | viability, T/C (second compound 0.316 µM, first compound 0.00316 µM): 6.03% | viability, T/C (second compound 0.316 µM, first compound 0.01 µM): 7.86% | viability, T/C [9]: 7.33% | viability, T/C [10]: 5.96% | viability, T/C (second compound 1 µM, first compound 0.000316 µM): 1.78% | viability, T/C (second compound 1 µM, first compound 0.001 µM): 1.73% | viability, T/C (second compound 1 µM, first compound 0.00316 µM): 1.47% | viability, T/C (second compound 1 µM, first compound 0.01 µM): 1.54% | viability, T/C [11]: 2.14% | viability, T/C [12]: 1.68%

CCCS(=O)(=O)Nc1ccc(F)c(C(=O)c2c[nH]c3ncc(-c4ccc(Cl)cc4)cc23)c1F + COc1c(OCCCN2CCOCC2)ccc2c3n(c(=NC(=O)c4cnc(N)nc4)nc12)CCN3
pIC50 (second compound 0.00316 µM): 5.30 | pIC50 (second compound 0.01 µM): 5.33 | pIC50 (second compound 0.0316 µM): > 7.50 | pIC50 (second compound 0.1 µM): > 7.50 | pIC50 (second compound 0.316 µM): > 7.50 | pIC50 (second compound 1 µM): > 7.50 | viability, T/C [1]: 81.3% | viability, T/C [2]: 94.1% | viability, T/C [13]: 85.1% | viability, T/C [14]: 93.1% | viability, T/C [15]: 83.7% | viability, T/C [16]: 0.64% | viability, T/C [3]: 73.6% | viability, T/C [4]: 72.5% | viability, T/C [17]: 73.8% | viability, T/C [18]: 78.4% | viability, T/C [19]: 74.5% | viability, T/C [20]: 0.66% | viability, T/C [5]: 50.7% | viability, T/C [6]: 46% | viability, T/C [21]: 40.8% | viability, T/C [22]: 45.7% | viability, T/C [23]: 37.6% | viability, T/C [24]: 2.52% | viability, T/C [7]: 18.3% | viability, T/C [8]: 17.4% | viability, T/C [25]: 17.1% | viability, T/C [26]: 18.9% | viability, T/C [27]: 17.3% | viability, T/C [28]: 0.92% | viability, T/C [9]: 7.34% | viability, T/C [10]: 5.95% | viability, T/C [29]: 6.85% | viability, T/C [30]: 7.94% | viability, T/C [31]: 7.74% | viability, T/C [32]: 1.13% | viability, T/C [11]: 1.84% | viability, T/C [12]: 1.61% | viability, T/C [33]: 1.73% | viability, T/C [34]: 2.48% | viability, T/C [35]: 2.83% | viability, T/C [36]: 0.45%

CNC(=O)c1ccc(N2C(=S)N(c3ccc(C#N)c(C(F)(F)F)c3)C(=O)C2(C)C)cc1F + COc1c(OCCCN2CCOCC2)ccc2c3n(c(=NC(=O)c4cnc(N)nc4)nc12)CCN3
pIC50 (second compound 0.00316 µM): < 5.00 | pIC50 (second compound 0.01 µM): < 5.00 | pIC50 (second compound 0.0316 µM): > 7.50 | pIC50 (second compound 0.1 µM): > 7.50 | pIC50 (second compound 0.316 µM): > 7.50 | pIC50 (second compound 1 µM): > 7.50 | viability, T/C [1]: 86.8% | viability, T/C [2]: 85% | viability, T/C [13]: 92% | viability, T/C [14]: 89.7% | viability, T/C [15]: 81.6% | viability, T/C [16]: 70% | viability, T/C [3]: 72.6% | viability, T/C [4]: 72.3% | viability, T/C [17]: 76.7% | viability, T/C [18]: 66.6% | viability, T/C [19]: 74.6% | viability, T/C [20]: 63.9% | viability, T/C [5]: 42.1% | viability, T/C [6]: 43% | viability, T/C [21]: 42.3% | viability, T/C [22]: 45.8% | viability, T/C [23]: 41.6% | viability, T/C [24]: 37.3% | viability, T/C [7]: 19.2% | viability, T/C [8]: 18.7% | viability, T/C [25]: 18.4% | viability, T/C [26]: 18% | viability, T/C [27]: 19.6% | viability, T/C [28]: 17.2% | viability, T/C [9]: 6.13% | viability, T/C [10]: 6.8% | viability, T/C [29]: 6.44% | viability, T/C [30]: 6.88% | viability, T/C [31]: 8.06% | viability, T/C [32]: 6.65% | viability, T/C [11]: 1.46% | viability, T/C [12]: 1.67% | viability, T/C [33]: 1.58% | viability, T/C [34]: 1.92% | viability, T/C [35]: 1.61% | viability, T/C [36]: 1.49%
